Source: US8377967B2, “Piperidine derivative” (Nippon Zoki Pharmaceutical Co., Ltd., priority 2008, dated 2013)
Where a name gives a salt, the structure may show the parent alone.

Target: human histamine H1 receptor (Homo sapiens, UniProt P35367)
Experiment: In vitro human histamine H1 receptor binding experiment ([3H]pyrilamine)
Conditions: HEK293A cells stably expressing human histamine H1 receptor, [3H]pyrilamine 3 nmol/L, room temperature 60 minutes
Method: Recombinant human histamine H1 receptor plasmid (prepared by Invitrogen) was transfected to HEK293A cells with Lipofectamine 2000 (manufactured by Invitrogen). Cells stably expressing human histamine H1 receptor were screened with Geneticin (manufactured by Invitrogen). The cells were continued to be cultured using a Dulbecco's Modified Eagle Medium containing 10% fetal bovine serum, 0.1 mmol/L MEM Non-Essential Amino Acids Solution, 2 mmol/L L-glutamine and 0.7 mg/mL Geneticin in a 5% CO2 incubator at 37° C. The cells stably expressing human histamine H1 receptor were prepared using 50 mmol/L Tris-HCl (pH 7.5) (hereinafter referred to as buffer) containing 0.1% bovine serum albumin, so as to have a concentration of 3×10^6 cells/mL, to give a cell sample preparation. Fifty microliters of the buffer, 50 μl of a test substance solution at various concentrations, and 50 μL of [^3H]pyrilamine solution (final concentration: 3 nmol/L) were added to each of the wells on the 96-well plate, and stirred, and 100 μL of the cell sample preparation was then added thereto (at a concentration of 3×10^5 cells/well) to initiate the reaction.
The cells were incubated at room temperature for 60 minutes, and then filtered on UniFilter GF/C plate (manufactured by Packard) immersed in 0.5% polyethyleneimine using a cell harvester (IH-110, manufactured by INNOTECH CORPORATION), to stop the reaction, and the plate was washed with the buffer. The plate after washing was sufficiently dried, and 20 μL of a scintillator (MaxiLight, manufactured by Hidex) was added thereto, and count per minute (cpm) was measured with a multi-labeled microplate reader (Plate Chameleo II, manufactured by Hidex). The nonspecific binding was cpm in a case where 30 μmol/L pyrilamine was added. The experiments were carried out at n=3, and at least repeated 3 times.

Sequence of human histamine H1 receptor (P35367 whole entry): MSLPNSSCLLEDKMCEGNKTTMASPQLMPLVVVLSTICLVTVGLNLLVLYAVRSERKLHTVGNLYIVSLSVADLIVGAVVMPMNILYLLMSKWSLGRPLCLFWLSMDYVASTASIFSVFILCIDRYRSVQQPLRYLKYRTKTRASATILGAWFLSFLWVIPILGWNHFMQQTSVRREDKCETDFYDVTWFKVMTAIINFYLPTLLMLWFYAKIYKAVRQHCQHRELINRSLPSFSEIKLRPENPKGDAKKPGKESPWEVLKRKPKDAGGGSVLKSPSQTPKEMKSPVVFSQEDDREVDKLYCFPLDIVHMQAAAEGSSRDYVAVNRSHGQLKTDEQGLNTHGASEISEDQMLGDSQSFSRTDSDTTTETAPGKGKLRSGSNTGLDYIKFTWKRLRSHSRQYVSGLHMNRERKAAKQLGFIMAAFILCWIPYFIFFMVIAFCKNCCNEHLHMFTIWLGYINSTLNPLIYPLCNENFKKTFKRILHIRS

CN1CCC(=C2c3ccccc3CCc3cc(NC(=O)OC(C)(C)C)sc32)CC1 [Compound 10, 2-t-Butoxycarbonylamino-4-(1-methylpiperidin-4-ylidene)-9,10-dihydro-4H-3-thiabenzo[f]azulene] was tested, and the IC50 was 88.5 nM.

In the case of CC(=O)NCc1cc2c(s1)CCc1ccccc1C2=C1CCN(C)CC1 [Compound 20, 2-Acetylaminomethyl-4-(1-methylpiperidin-4-ylidene)-9,10-dihydro-4H-1-thiabenzo[f]azulene hydrochloride], the IC50 is reported as 15.2 nM.

In the case of CCOC(=O)Cc1cc2c(s1)C(=C1CCN(C)CC1)c1ccccc1CC2 [Compound 23, Ethyl[4-(1-methylpiperidin-4-ylidene)-9,10-dihydro-4H-3-thiabenzo[f]azulen-2-yl]acetate hydrochloride], the IC50 is reported as 3.5 nM.

With CN1CCC(=C2c3ccccc3CCc3sc(C(N)=O)cc32)CC1 [Compound 31, [4-(1-Methylpiperidin-4-ylidene)-9,10-dihydro-4H-1-thiabenzo[f]azulen-2-yl]carboxamide] the IC50 was 16.4 nM.

COCCNC(=O)c1cc2c(s1)CCc1ccccc1C2=C1CCN(C)CC1 [Compound 38, N-(2-Methoxyethyl)-[4-(1-methylpiperidin-4-ylidene)-9,10-dihydro-4H-1-thiabenzo[f]azulen-2-yl]carboxamide hydrochloride] showed an IC50 of 70.8 nM.

For CONC(=O)c1cc2c(s1)CCc1ccccc1C2=C1CCN(C)CC1 [Compound 40, N-Methoxy [4-(1-methylpiperidin-4-ylidene)-9,10-dihydro-4H-1-thiabenzo[f]azulen-2-yl]carboxamide hydrochloride], the IC50 was 52.1 nM.

In the case of CCOC(=O)c1cc2c(s1)C(=C1CCN(C)CC1)c1ccccc1OC2 [Compound 44, Ethyl[4-(1-methylpiperidin-4-ylidene)-4,10-dihydro-9-oxa-3-thiabenzo[f]azulen-2-yl]carboxylate hydrochloride], the IC50 is reported as 19.2 nM.

CCOC(=O)C=Cc1cc2c(s1)C(=O)Cc1ccccc1C2=C1CCN(C)CC1 [Compound 47, Ethyl 3-[4-(1-methylpiperidin-4-ylidene)-10-oxo-9,10-dihydro-4H-1-thiabenzo[f]azulen-2-yl]acrylate] was tested, and the IC50 was 29.3 nM.

CCOC(=O)c1cc2c(s1)C(=O)Cc1ccccc1C2=C1CCN(C)CC1 [Compound 50, Ethyl[4-(1-methylpiperidin-4-ylidene)-10-oxo-9,10-dihydro-4H-1-thiabenzo[f]azulen-2-yl]carboxylate] gave an IC50 of 16.9 nM.

In the case of CC(C(=O)O)c1ccc2c(c1)C(=C1CCN(C)CC1)c1sccc1CO2 (stereo not drawn) [Compound 57, 2-[4-(1-Methylpiperidin-4-ylidene)-4,10-dihydro-9-oxa-3-thiabenzo[f]azulen-6-yl]propionic acid hydrochloride], the IC50 is reported as 70.1 nM.

Work on CC(C(=O)O)c1cc2c(s1)C(=C1CCN(C)CC1)c1ccccc1CC2 (stereo not drawn) [Compound 60, 2-[4-(1-Methylpiperidin-4-ylidene)-9,10-dihydro-4H-3-thiabenzo[f]azulen-2-yl]propionic acid hydrochloride] yielded an IC50 of 59.1 nM.

CN1CCC(=C2c3ccccc3CCc3sc(CC(=O)NCCO)cc32)CC1 [Compound 63, N-(2-Hydroxyethyl)-{[4-(1-methylpiperidin-4-ylidene)-9,10-dihydro-4H-1-thiabenzo[f]azulen-2-yl]}acetamide] showed an IC50 of 42 nM.

With CC(C(=O)NCCO)c1ccc2c(c1)C(=C1CCN(C)CC1)c1sccc1CO2 (stereo not drawn) [Compound 64, N-(2-Hydroxyethyl)-{2-[4-(1-methylpiperidin-4-ylidene)-4,10-dihydro-9-oxa-3-thiabenzo[f]azulen-6-yl]}propionamide] the IC50 was 48.6 nM.

Compound CC(O)CNC(=O)c1cc2c(s1)CCc1ccccc1C2=C1CCN(C)CC1 (stereo not drawn) [Compound 70, N-(2-Hydroxypropyl)-{[4-(1-methylpiperidin-4-ylidene)-9,10-dihydro-4H-1-thiabenzo[f]azulen-2-yl]}carboxamide] has an IC50 of 93.3 nM.

For CC(CO)NC(=O)c1cc2c(s1)CCc1ccccc1C2=C1CCN(C)CC1 (stereo not drawn) [Compound 71, N-(1-Hydroxyprop-2-yl)-{[4-(1-methylpiperidin-4-ylidene)-9,10-dihydro-4H-1-thiabenzo[f]azulen-2-yl]}carboxamide], the IC50 was 62 nM.

CN1CCC(=C2c3ccccc3CCc3sc(C(=O)N(C)O)cc32)CC1 [Compound 74, N-Hydroxy-N-methyl-{[4-(1-methylpiperidin-4-ylidene)-9,10-dihydro-4H-1-thiabenzo[f]azulen-2-yl]}carboxamide] was tested, and the IC50 was 70.9 nM.

Work on CCOC(=O)Nc1cc2c(s1)CCc1ccccc1C2=C1CCN(C)CC1 [Compound 75, 2-Ethoxycarbonylamino-4-(1-methylpiperidin-4-ylidene)-9,10-dihydro-4H-1-thiabenzo[f]azulene] yielded an IC50 of 74.8 nM.

CN1CCC(=C2c3ccccc3CCc3sc(C(=O)NCCF)cc32)CC1 [Compound 77, N-(2-Fluoroethyl)-{[4-(1-methylpiperidin-4-ylidene)-9,10-dihydro-4H-1-thiabenzo[f]azulen-2-yl]}carboxamide] was tested, and the IC50 was 37.8 nM.

For CN1CCC(=C2c3ccccc3CCc3sc(C(=O)NO)cc32)CC1 [Compound 78, N-Hydroxy-{[4-(1-methylpiperidin-4-ylidene)-9,10-dihydro-4H-1-thiabenzo[f]azulen-2-yl]}carboxamide], the IC50 was 65.1 nM.

Work on CN1CCC(=C2c3ccccc3CCc3sc(C(=O)NCC(F)(F)F)cc32)CC1 [Compound 79, N-(2,2,2-Trifluoroethyl)-{[4-(1-methylpiperidin-4-ylidene)-9,10-dihydro-4H-1-thiabenzo[f]azulen-2-yl]}carboxamide] yielded an IC50 of 28.2 nM.

Compound CN1CCC(=C2c3ccccc3CCc3sc(C(=O)NC(C)(C)CO)cc32)CC1 [Compound 80, N-(2-Methyl-1-hydroxyprop-2-yl)-{[4-(1-methylpiperidin-4-ylidene)-9,10-dihydro-4H-1-thiabenzo[f]azulen-2-yl]}carboxamide] has an IC50 of 69.9 nM.

CON(C)C(=O)c1cc2c(s1)CCc1ccccc1C2=C1CCN(C)CC1 [Compound 84, N-Methyl-N-methoxy-{[4-(1-methylpiperidin-4-ylidene)-9,10-dihydro-4H-1-thiabenzo[f]azulen-2-yl]}carboxamide] showed an IC50 of 38.4 nM.

With CCCNC(=O)c1cc2c(s1)CCc1ccccc1C2=C1CCN(C)CC1 [Compound 85, N-Propyl-{[4-(1-methylpiperidin-4-ylidene)-9,10-dihydro-4H-1-thiabenzo[f]azulen-2-yl]}carboxamide] the IC50 was 27.5 nM.

C=CCNC(=O)c1cc2c(s1)CCc1ccccc1C2=C1CCN(C)CC1 [Compound 86, N-Allyl-{[4-(1-methylpiperidin-4-ylidene)-9,10-dihydro-4H-1-thiabenzo[f]azulen-2-yl]}carboxamide] was tested, and the IC50 was 21.2 nM.

Work on N#CCCN1CCC(=C2c3ccccc3CCc3sc(C(=O)O)cc32)CC1 [Compound 94, {4-[1-(2-Cyanoethyl)piperidin-4-ylidene]-9,10-dihydro-4H-1-thiabenzo[f]azulen-2-yl}carboxylic acid] yielded an IC50 of 69 nM.

Compound CCOC(=O)c1ccc2c(c1)C(=C1CCN(C)CC1)c1ccsc1CC2 [Compound 95, Ethyl[4-(1-methylpiperidin-4-ylidene)-9,10-dihydro-4H-1-thiabenzo[f]azulen-6-yl]carboxylate] has an IC50 of 14.9 nM.

CCOC(=O)CCc1cc2c(s1)CCc1ccccc1C2=C1CCN(C)CC1 [Compound 97, Ethyl 3-[4-(1-methylpiperidin-4-ylidene)-9,10-dihydro-4H-1-thiabenzo[f]azulen-2-yl]propionate] gave an IC50 of 16.9 nM.

Compound CCOC(=O)c1cc2c(s1)CCc1ccccc1C2=C1CCN(CC)CC1 [Compound 103, Ethyl[4-(1-ethylpiperidin-4-ylidene)-9,10-dihydro-4H-1-thiabenzo[f]azulen-2-yl]carboxylate hydrochloride] has an IC50 of 35.4 nM.

With CN1CCC(=C2c3cc(CO)ccc3CCc3sccc32)CC1 [Compound 104, 6-(2-Hydroxymethyl)-4-(1-methylpiperidin-4-ylidene)-9,10-dihydro-4H-1-thiabenzo[f]azulene] the IC50 was 4.8 nM.

For CCOC(=O)c1cc2c(s1)CCc1ccccc1C2=C1CCN(CCO)CC1 [Compound 105, Ethyl {4-[1-(2-hydroxyethyl)piperidin-4-ylidene]-9,10-dihydro-4H-1-thiabenzo[f]azulen-2-yl}carboxylate], the IC50 was 50.2 nM.

CCOC(=O)Cc1ccc2c(c1)C(=C1CCN(C)CC1)c1ccsc1CC2 [Compound 106, Ethyl[4-(1-methylpiperidin-4-ylidene)-9,10-dihydro-4H-1-thiabenzo[f]azulen-6-yl]acetate hydrochloride] was tested, and the IC50 was 7.04 nM.

Compound CCOC(=O)COCCN1CCC(=C2c3ccccc3CCc3sc(C(=O)OCC)cc32)CC1 [Compound 110, Ethyl {4-[1-(2-ethoxycarbonylmethoxyethyl)piperidin-4-ylidene]-9,10-dihydro-4H-1-thiabenzo[f]azulen-2-yl}carboxylate hydrochloride] has an IC50 of 23.4 nM.

For C=Cc1cc2c(s1)CCc1ccccc1C2=C1CCN(C)CC1 [Compound 112, 2-Vinyl-4-(1-methylpiperidin-4-ylidene)-9,10-dihydro-4H-1-thiabenzo[f]azulene], the IC50 was 1.94 nM.
